From patent US5969094A, “Anti-paramyxovirus screening method and vaccine” (Emory University, priority 1996, dated 1999)

Columns and labels:
[1] = test system: HIV-1; conditions: Wild et al. 1994; cited from earlier work
[2] = test system: PI3 virus; assay type: cell-based, human parainfluenza type 3 virus
[3] = test system: PI3 virus; experiment: Inhibition of plaque formation on Vero cells (viral entry), PI3; assay type: cell-based, human parainfluenza type 3 virus; conditions: 100 μM peptide with virus 1 h at 37° C.; 10^5 dilution of the PI3 virus stock; overlay without peptide
Procedure: (§1) Inhibition of plaque formation. A series of 2-fold dilutions of F peptides together with appropriately diluted PI2 or PI3 virus were added to monolayers of Vero cells. After 1 h incubation at 37° C., the inoculum was removed and overlaid with 2% white agar mixed at 1:1 ratio with 2XDMEM containing 2% FBS. Three days after overlying, red agar mixed at a 1:1 ratio with 2XDMEM containing 2% FBS was overlaid to stain the cells. Plaque numbers were counted one day after neutral red staining and recorded. The Reed-Muench method of estimating 50% endpoint [Welkos, S. et al., (1994) Methods in Enzymology. 235:29-39] was used to calculate the F peptide 50% effective concentration (EC50) value.
(§2) F peptides inhibit viral spread. To determine whether the F peptide interferes with the viral entry process, a plaque assay was performed by inoculating cells with virus and peptide together at 37° C. for 1 h, and then overlaying with agar without the addition of peptide. At 10^4 dilution of the PI2 virus stock, 80 μM of the 2F1B34 peptide (SEQ ID NO:21) caused an 80% reduction in number of plaques. Similarly, at 10^5 dilution of the PI3 virus stock, 100 μM of the 3F1B35 peptide (SEQ ID NO:23) caused a 70% reduction in number of plaques. Furthermore, the reduction in the number of viral plaques was correlated with increasing concentration of peptide incubated with the virus. […]

[4] = biological target: PI3F + PI3HN (Human parainfluenza 3 virus, UniProt P06828)
[5] = test system: PI2 virus; assay type: cell-based, parainfluenza virus type 2
[6] = biological target: T1, PI2F + PI2HN (Human parainfluenza 2 virus, UniProt P25467); assay type: cell-based, parainfluenza virus type 2; conditions: 18 hr
T1 construct: expressed in transfected cells; host or cells: HeLa-T4 cells infected with vTF7.3
T1 sequence (P25467 107-551 limits assumed): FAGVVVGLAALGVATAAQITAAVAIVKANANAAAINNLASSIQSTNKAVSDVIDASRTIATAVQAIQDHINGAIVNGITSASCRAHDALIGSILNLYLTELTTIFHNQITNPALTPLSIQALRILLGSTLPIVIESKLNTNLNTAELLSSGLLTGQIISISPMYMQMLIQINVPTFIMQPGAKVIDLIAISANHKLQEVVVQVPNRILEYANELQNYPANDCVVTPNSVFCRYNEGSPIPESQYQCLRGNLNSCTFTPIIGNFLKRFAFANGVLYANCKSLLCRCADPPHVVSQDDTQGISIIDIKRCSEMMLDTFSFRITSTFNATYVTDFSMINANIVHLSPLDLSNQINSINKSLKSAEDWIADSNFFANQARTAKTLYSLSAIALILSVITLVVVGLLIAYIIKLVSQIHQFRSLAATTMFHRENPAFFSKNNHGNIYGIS
T1 sequence (P25467 24-106 partner limits assumed): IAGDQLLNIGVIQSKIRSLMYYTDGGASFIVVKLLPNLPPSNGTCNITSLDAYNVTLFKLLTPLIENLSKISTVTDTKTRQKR

[7] = test system: PI2 virus; experiment: Inhibition of plaque formation on Vero cells (viral entry), PI2; assay type: cell-based, parainfluenza virus type 2
Procedure: as §1, §2

[8] = test system: PI2 virus; experiment: Inhibition of virus production (released virus titer) in HeLa-T4 cells, PI2; assay type: cell-based, parainfluenza virus type 2; conditions: 48 h post infection; m.o.i. 0.1; 80 μM peptide (FIG. 10); culture supernatant
[9] = test system: PI2 virus; experiment: Plaque size reduction on Vero cells, peptide in agar overlay; assay type: cell-based, parainfluenza virus type 2; conditions: 80 μM peptide in agar overlay after 1 h absorption; control cells 3 mm; three days
Procedure: FIGS. 11A and 11B Plaque size reduction by F peptides. Plaque assay was performed on the Vero cells using PI2 virus. After 1 h absorption at 37° C., inoculum was removed and cells overlaid with a 1:1 mixture of 2% white agar with 2XDMEM containing 2% FBS (A) without addition of F peptide, or (B) with addition of 80 μM of 2F1B34 in the overlay agar. Three days after overlaying, the agar was removed and the monolayer of cells was stained with crystal violet.
As another indication of a reduction in spread of virus under condition of multiple cycle replication, the effect of the peptides on plaque size was determined.

[10] = test system: PI2 virus; experiment: Surface immunofluorescence of PI2 antigen on infected HeLa-T4 cells (viral spread); assay type: cell-based, parainfluenza virus type 2; conditions: low m.o.i. infection, incubated with peptide
Procedure: Surface immunofluorescence. Indirect immunofluorescence was performed as described by Paterson et al. 1989. In general, HeLa-T4 cells were grown on glass coverslips in 24-well plates and infected with wild-type PI2 virus as described above. At indicated times post infection, cells were washed with ice-cold PBS three times before being fixed with 1% paraformaldehyde in PBS. Rabbit anti-PI2 antibody was added onto cell monolayers, and cells were then incubated at 4° C. for 30 min. Cells were washed with ice-cold PBS three times, and then goat anti-rabbit immunoglobulin G fluorescein-conjugated antibody (Southern Biotechnology Associates, Inc., Birmingham, Ala.) was added and was then incubated at 4° C. for 30 min. Cell surface fluorescence was examined by fluorescence microscopy with a Nikon Optiphot microscope.
To further confirm that the F peptides inhibit viral spread, we examined the distribution of infected cells by surface immunofluorescence at intervals post low m.o.i. infection in the presence or absence of F peptides.

[11] = incubated with peptide, concentration not given

Sequence of PI3F + PI3HN (P06828 110-539): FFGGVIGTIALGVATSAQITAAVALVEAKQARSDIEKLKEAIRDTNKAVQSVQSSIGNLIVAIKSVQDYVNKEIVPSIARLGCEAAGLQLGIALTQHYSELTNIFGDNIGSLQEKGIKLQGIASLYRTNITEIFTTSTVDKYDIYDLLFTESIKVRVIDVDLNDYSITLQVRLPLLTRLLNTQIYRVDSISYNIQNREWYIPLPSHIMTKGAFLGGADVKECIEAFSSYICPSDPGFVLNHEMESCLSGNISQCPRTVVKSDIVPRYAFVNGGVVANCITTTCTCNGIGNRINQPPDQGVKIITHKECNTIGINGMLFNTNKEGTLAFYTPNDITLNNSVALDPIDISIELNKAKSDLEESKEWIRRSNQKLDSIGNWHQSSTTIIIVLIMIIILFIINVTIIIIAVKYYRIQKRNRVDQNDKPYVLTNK
Sequence of PI3F + PI3HN (P06828 19-109): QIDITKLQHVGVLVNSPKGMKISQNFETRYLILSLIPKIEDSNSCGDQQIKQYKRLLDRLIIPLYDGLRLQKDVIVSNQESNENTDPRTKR

Question: For enfuvirtide, which “potency against cell-cell fusion versus infection by cell-free virus” value [1] is on record?
Answer: Its value is “more potent inhibitor of cell-cell fusion than of infection by cell-free virus”.

Question: What does the source list for “3F1B35: 35 a.a. PI3F peptide from the beginning of the transmembrane domain to include the entire heptad repeat B (ELNKAKSDLEESKEWIRRSNQKLDSIGNWHQSSTT)”?
Answer: syncytium formation / inhibition of cell fusion in PI3 infected HeLa-T4 cells (in words) [2, 11]: no syncytia were seen; inhibition of PI3 virus-induced cell fusion ([2]; peptide 100 μM, 24 h post infection): completely inhibited; reduction in number of plaques, PI3 [3]: 70%; inhibition of fusion by PI3 F plus PI3 HN [4]: can inhibit

Question: Which results are given for “2F1B34: PI2F peptide from the beginning of the transmembrane domain to include the entire heptad repeat B region (DLSNQINSINKSLKSAEDWIADSNFFANQARTAK)”?
Answer: syncytium formation / inhibition of cell fusion in PI2 infected HeLa-T4 cells (in words) [5, 11]: no syncytia were seen; inhibition of PI2 virus-induced cell fusion ([5]; peptide concentration as low as 80 μM, 24 h post infection, m.o.i. 0.1): completely inhibited; inhibition of cell fusion induced by coexpression of PI2 F plus PI2 HN [6]: completely inhibit; reduction in number of plaques, PI2 ([7]; 80 μM peptide with virus 1 h at 37° C., 10^4 dilution of the PI2 virus stock, overlay without peptide): 80%; EC50 ([7]; Vero cells, Reed-Muench method, read-out: 50% effective concentration (EC50), plaque number, PI2): 53.8 µM; decrease in the viral titer, PI2 [8]: 15 fold; plaque size (diameter) [9]: 1.5 mm; cells expressing PI2 antigen on the surface at 18 h [10]: only few cells were expressing PI2 antigen; numbers of cells showing PI2 antigen expression on the surface at 24 h and 48 hpi [10]: no increase in numbers of cells showing antigen expression
